How the values were obtained:
[1] = Dissolution rate measurement (UV, 250 mL medium, 150 RPM, 2 h, 37 °C); format: physicochemical; settings: for Time-dependent dissolution rate: 37 °C
Experimental: The solubility and dissolution studies of pure PUE, I, and II were measured using a Thermo Scientific Evolution 300 UV spectrometer in deionized water at pH 7.0, gastrointestinal tract at pH 1.2, and phosphate buffer at pH 6.8 solution at 37 °C. The concentration was calculated utilizing a standard curve, which was made by measuring the absorbance of different concentrations at their λmax. A superfluity sum of the sample was added to 10 mL of H2O medium, pH 1.2 and pH 6.8 phosphate, respectively.
The oversaturated solution was stirred at 500 RPM by magnetic stirring at 37 °C for 24 h and the suspension was filtered through Whatman’s […] syringe channel, diluted sufficiently and the absorbance was measured at their λmax. For the dissolution rate, the sample was specifically poured into 250 mL pH 7.0 water, pH 1.2 gastrointestinal tract, and pH 6.8 phosphates medium and then stirred at 150 RPM for 2h at 37 °C. Each solution was measured by the absorbance at λmax. At customary interims, the solution was replenished with 3 mL of the respective blank solution to maintain an overall steady volume.

[2] = test system: CT-26 cancer cell lines; test: Cytotoxicity evaluation by MTT assay, CT-26; format: cell-based, murine; settings: CT-26, culturing 24 h
Experimental: (§1) CT-26 and HEK-293 cell line was purchased from American Type Culture Collection (Manassas, VA, USA). The cell lines were cultured in RPMI 1640 (for CT-26) or DMEM (for HEK-293) containing 10% fetal bovine serum (FBS, Zhejiang Tianhang Biotechnology Co. Ltd., Hangzhou, China) and 1% penicillin/streptomycin (Zhejiang Tianhang Biotechnology Co. Ltd., Hangzhou, China). Cells grew as a monolayer and were detached upon confluence using trypsin (0.5% w/v in PBS, Zhejiang Tianhang Biotechnology Co. Ltd., Hangzhou, China). The cells were harvested from the cell culture medium by incubating in trypsin solution for 3 min. The cells were centrifuged, and the supernatant discarded. A 3 mL portion of serum-supplemented cell culture medium was added to neutralize any residual trypsin. The cells were re-suspended in serum-supplemented RPMI 1640 (for CT-26) or DMEM (for HEK-293) at a concentration of 5 × 10^4 cells per 1 mL. Cells were cultured at 37 °C and 5% CO2 for MTT studies.
(§2) The CT-26 or HEK-293 cells were seeded at a density of 1 × 10^4 cells per well in 100 µL of complete RPMI 1640 (CT-26) or DMEM (for HEK-293), and cultured for 16 h for attachment. The culture medium was then replaced by a serum-free medium containing various concentrations of pristine PUE, I, and II. […] After incubating the cells at 37 °C for 4 h, the MTT solution was removed and DMSO (100 μL) added to dissolve the formazan crystals formed, and the microplates were agitated for 5 min at a medium rate before the spectrophotometric measurement at a wavelength of 570 nm on a microplate reader. […] The relative cell viability (%) related to control cells was calculated by the formula below: V%=[A]experimental−[A]blank/[A]control−[A]blank×100% where V% is the percentage of cell viability, [A]experimental is the absorbance of the wells culturing the treated cells, [A]blank is the absorbance of the blank, and [A]control is the absorbance of the wells culturing untreated cells.

[3] = test system: HEK-293 cell lines; test: Cytotoxicity evaluation by MTT assay, HEK-293; format: cell-based, human; settings: HEK-293, culturing 24 h
Experimental: as §1, §2

CCO.O.O.O=C(O)[C@@H]1CCCN1.O=c1c(-c2ccc(O)cc2)coc2c([C@@H]3O[C@H](CO)[C@@H](O)[C@H](O)[C@H]3O)c(O)ccc12.O=c1c(-c2ccc(O)cc2)coc2c([C@@H]3O[C@H](CO)[C@@H](O)[C@H](O)[C@H]3O)c(O)ccc12 [II, [PUE]2[PRO]∙EtOH∙(H2O)2]
Time-dependent dissolution rate ([1]; Water, 5 min): 0.131 mg/mL | Time-dependent dissolution rate ([1]; Water, 10 min): 0.210 mg/mL | Time-dependent dissolution rate ([1]; Water, 15 min): 0.281 mg/mL | Time-dependent dissolution rate ([1]; Water, 20 min): 0.457 mg/mL | Time-dependent dissolution rate ([1]; Water, 25 min): 0.567 mg/mL | Time-dependent dissolution rate ([1]; Water, 30 min): 0.701 mg/mL | Time-dependent dissolution rate ([1]; Water, 40 min): 1.450 mg/mL | Time-dependent dissolution rate ([1]; Water, 50 min): 2.110 mg/mL | Time-dependent dissolution rate ([1]; Water, 60 min): 2.490 mg/mL | Time-dependent dissolution rate ([1]; Water, 80 min): 2.840 mg/mL | Time-dependent dissolution rate ([1]; Water, 100 min): 3.203 mg/mL | Time-dependent dissolution rate ([1]; Water, 120 min): 3.410 mg/mL | Time-dependent dissolution rate ([1]; pH 1.2, 5 min): 0.171 mg/mL | Time-dependent dissolution rate ([1]; pH 1.2, 10 min): 0.240 mg/mL | Time-dependent dissolution rate ([1]; pH 1.2, 15 min): 0.337 mg/mL | Time-dependent dissolution rate ([1]; pH 1.2, 20 min): 0.417 mg/mL | Time-dependent dissolution rate ([1]; pH 1.2, 25 min): 0.479 mg/mL | Time-dependent dissolution rate ([1]; pH 1.2, 30 min): 0.534 mg/mL | Time-dependent dissolution rate ([1]; pH 1.2, 40 min): 1.005 mg/mL | Time-dependent dissolution rate ([1]; pH 1.2, 50 min): 1.342 mg/mL | Time-dependent dissolution rate ([1]; pH 1.2, 60 min): 1.489 mg/mL | Time-dependent dissolution rate ([1]; pH 1.2, 80 min): 1.683 mg/mL | Time-dependent dissolution rate ([1]; pH 1.2, 100 min): 1.923 mg/mL | Time-dependent dissolution rate ([1]; pH 1.2, 120 min): 2.005 mg/mL | dissolution rate compared with the other forms ([1]; pH 1.2, pH 6.8, H2O pH 7.0): higher dissolution rate than both I and PUE | Time-dependent dissolution rate ([1]; pH 6.8, 5 min): 0.121 mg/mL | Time-dependent dissolution rate ([1]; pH 6.8, 10 min): 0.212 mg/mL | Time-dependent dissolution rate ([1]; pH 6.8, 15 min): 0.352 mg/mL | Time-dependent dissolution rate ([1]; pH 6.8, 20 min): 0.446 mg/mL | Time-dependent dissolution rate ([1]; pH 6.8, 25 min): 0.537 mg/mL | Time-dependent dissolution rate ([1]; pH 6.8, 30 min): 0.861 mg/mL | Time-dependent dissolution rate ([1]; pH 6.8, 40 min): 1.059 mg/mL | Time-dependent dissolution rate ([1]; pH 6.8, 50 min): 1.503 mg/mL | Time-dependent dissolution rate ([1]; pH 6.8, 60 min): 2.210 mg/mL | Time-dependent dissolution rate ([1]; pH 6.8, 80 min): 2.723 mg/mL | Time-dependent dissolution rate ([1]; pH 6.8, 100 min): 3.138 mg/mL | Time-dependent dissolution rate ([1]; pH 6.8, 120 min): 3.370 mg/mL | cytotoxicity (MTT cell viability) [2]: negligible cytotoxicity | cytotoxicity (MTT cell viability) [3]: negligible cytotoxicity
